Test results: the supplement of paper PMC8024199

Tests used:
Assay in all cases: drug sensitivity score (DSS) (DSS score); higher = more sensitive (stronger growth inhibition); extreme values may be limits of the assay
[1] = system: Mye-BP RUNX1 p.K117*
Experimental: (§1)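 Ex vivo drug sensitivity and resistance testing of primary bone marrow mononuclear cells from blast-phase CML patients (RUNX1-mutated and RUNX1 wild-type) against an oncology drug library. Each drug was tested at five concentrations over a 10,000-fold range, with viability normalised to DMSO controls. The drug sensitivity score (DSS) was computed from the dose-response curve.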

[2] = system: Ly-BP RUNX1 wild-1
Experimental: as §1

[3] = system: Mye-BP RUNX1 p.R162K
Experimental: as §1

[4] = system: Mye-BP RUNX1 p.R107C
Experimental: as §1

[5] = system: Ly-BP RUNX1 p.R204Q
Experimental: as §1

[6] = system: My-BP RUNX1 wild-2
Experimental: as §1

[7] = system: My-BP RUNX1 wild-4
Experimental: as §1

[8] = system: My-BP RUNX1 wild-3
Experimental: as §1

SMILES	drug sensitivity score [1]	drug sensitivity score [2]	drug sensitivity score [3]	drug sensitivity score [4]	drug sensitivity score [5]	drug sensitivity score [6]	drug sensitivity score [7]	drug sensitivity score [8]
COc1ccc(-c2cc3c(C)nc(N)nc3n([C@H]3CC[C@H](OCCO)CC3)c2=O)cn1	23.8	27.2	17.5	19	21.7	11.5	11.2	11.7
CN(C)c1nc(N(C)C)nc(N(C)C)n1 [Altretamine]	0	0	0	0	0	0	0	0
CO[C@H]1/C=C\C=C(/C)C(=O)NC2=CC(=O)C(NCCN(C)C)=C(C[C@@H](C)C[C@H](OC)[C@H](O)[C@@H](C)/C=C(\C)[C@@H]1OC(N)=O)C2=O [Alvespimycin]	17	15.4	18.6	15.7	12.8	14.6	12.3	4.98
CN(C)CCN1C(=O)c2cccc3cc(N)cc(c23)C1=O [Amonafide]	9.1	10.4	9.35	9.1	10.4	7.35	1.14	3.95
CS(=O)(=O)OCCCCOS(C)(=O)=O [Busulfan]	0.4	0.6	1.94	2.2	0	0	0	0
C#Cc1cccc(Nc2ncnc3cc(OC)c(OCCCCCCC(=O)NO)cc23)c1 [CUDC-101]	19.6	16.7	20.5	19	22.2	17.5	9.63	8.55
O=NN(CCCl)C(=O)NCCCl [Carmustine]	0	0.9	0	0.7	0	0	0	0
O=C(O)CCCc1ccc(N(CCCl)CCCl)cc1 [Chlorambucil]	0.4	0.3	0.744	2.6	0.722	1.1	0.5	0.0873
O=P1(N(CCCl)CCCl)NCCCO1 (stereo not drawn) [Cyclophosphamide]	0	0	0.0041	0	0	0	0	0
CN(C)/N=N/c1[nH]cnc1C(N)=O [Dacarbazine]	2.4	2.8	0	0	0	0	0	0
O=P1(NCCCl)OCCCN1CCCl (stereo not drawn) [Ifosfamide]	0	0	0	0	0	0	0	0
